In publication PMC8820799, “Angiogenesis and anti-leukaemia activity of novel indole derivatives as potent colchicine binding site inhibitors” (Journal of Enzyme Inhibition and Medicinal Chemistry, 2022):

Legend:
HL60 = experiment: CCK-8 assay, HL60; format: cell-based; conditions: Homo sapiens, HL-60; leukaemia, APL; CCK-8, 72 h
Procedure: (§1) Cells were seeded in 96-well plates at a density of 8 × 10^3 per well and exposed to different concentrations of compounds for 72 h. Subsequently, 10 µL CCK8 solution was added to each well and co-incubated for another 3–4 h at 37 °C. The absorbance was determined at 450 nm. Data was calculated with GraphPad Prism5 software.[32]

CCRF-CEM = experiment: CCK-8 assay, CCRF-CEM; format: cell-based; conditions: Homo sapiens, leukaemia, ALL, CCK-8, 72 h
Procedure: as §1

[1] = molecular target: T1, tubulin colchicine binding site (Sus scrofa, UniProt P02550+P02554); experiment: [3H]colchicine-tubulin binding assay; conditions: compared with the positive control CA-4; Figure 4D
T1 construct: purchased Cytoskeleton, Inc
T1 sequence (P02554 whole entry): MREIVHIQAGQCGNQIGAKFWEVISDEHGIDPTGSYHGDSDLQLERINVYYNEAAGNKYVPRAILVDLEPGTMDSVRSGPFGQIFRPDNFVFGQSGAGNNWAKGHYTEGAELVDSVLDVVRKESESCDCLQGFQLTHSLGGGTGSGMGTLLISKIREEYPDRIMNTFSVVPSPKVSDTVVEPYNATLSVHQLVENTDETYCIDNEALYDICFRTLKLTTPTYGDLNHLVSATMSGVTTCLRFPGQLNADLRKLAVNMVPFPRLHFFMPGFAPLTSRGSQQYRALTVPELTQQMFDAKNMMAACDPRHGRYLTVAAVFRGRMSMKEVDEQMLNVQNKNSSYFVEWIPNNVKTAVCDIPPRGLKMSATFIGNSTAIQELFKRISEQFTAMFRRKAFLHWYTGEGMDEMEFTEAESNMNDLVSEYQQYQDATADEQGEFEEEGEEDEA
T1 sequence (P02550 whole entry): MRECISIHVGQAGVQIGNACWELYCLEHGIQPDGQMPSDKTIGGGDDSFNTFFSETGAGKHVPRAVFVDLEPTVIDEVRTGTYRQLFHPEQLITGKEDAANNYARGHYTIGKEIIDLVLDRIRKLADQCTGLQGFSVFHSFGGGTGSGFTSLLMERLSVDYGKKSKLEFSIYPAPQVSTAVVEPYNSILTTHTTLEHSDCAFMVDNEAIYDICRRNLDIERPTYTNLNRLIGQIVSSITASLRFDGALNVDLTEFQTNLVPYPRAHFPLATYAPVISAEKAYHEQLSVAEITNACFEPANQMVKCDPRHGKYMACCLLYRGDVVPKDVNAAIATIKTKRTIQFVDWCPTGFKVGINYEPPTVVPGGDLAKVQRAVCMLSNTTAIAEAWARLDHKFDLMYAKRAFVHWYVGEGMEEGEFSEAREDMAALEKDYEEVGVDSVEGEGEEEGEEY
Procedure: One micromolar radiolabeled colchicine [ring C, Methoxy-3H] (Perkin-Elmer), 1% DMSO and various concentrations of test compounds in 50 µL G-PEM buffer containing 80 mmol/L PIPES (pH 6.8), 1 mmol/L EGTA, 1 mmol/L MgCl2 and 1 mmol/L GTP, and 5% glycerol were incu-bated with […] (> 99% pure; Cytoskeleton, Inc.; 0.2 mg/mL) at 37 °C for 60 min. The binding solutions were filtered through a stack of 2 DEAE-cellulose filters and washed twice. The radioactivity in the […] was determined by liquid scintillation spectrometry (Perkin-Elmer Wallac). Nonlinear regression was used to analyse the data using GraphPad Prism.

MV4-11 = experiment: CCK-8 assay, MV4-11; format: cell-based; conditions: Homo sapiens, leukaemia, AML, CCK-8, 72 h
Procedure: as §1

leukaemia cell lines = experiment: Anti-proliferation against a variety of leukaemia cell lines (CCK-8); format: cell-based; conditions: seven leukaemia cell lines; read-out: IC50 against a variety of leukaemia cell lines (range over panel)
Procedure: as §1

[2] = molecular target: T2, Tubulin isolated from porcine brain tissue (Sus scrofa, UniProt P02550+P02554); experiment: Tubulin polymerisation assay; format: biochemical; conditions: triplicate, mean ± SD; read-out: Tubulin (tubulin inhibitory polymerisation IC50)
T2 construct: purchased Cytoskeleton (Denver, CO), via Beyotime, China; host or cells: porcine brain tissue
T2 sequence (P02554 whole entry): as the sequence (P02554 whole entry) above
T2 sequence (P02550 whole entry): as the sequence (P02550 whole entry) above
Procedure: Tubulin polymerisation was determined with the tubulin polymerisation assay kit (Cytoskeleton, Denver, CO which was purchased from Cytoskeleton, Beyotime, China. Tubulin isolated from porcine brain tissue was used in this commercial kit.) It is based on the principal that light is scattered by microtubules to an extent that is proportional to the concentration of the microtubule polymer. Compounds that interact with tubulin will alter the polymerisation of tubulin, and this can be detected using a spectrophotometer. Tubulin polymerisation dynamics was monitored through measuring the change of absorbance at 340 nm every 2 min for 30 min at 37 °C on a spectrophotometer.

K562 = experiment: CCK-8 assay, K562; format: cell-based; conditions: Homo sapiens, leukaemia, CML, CCK-8, 72 h
Procedure: as §1

K562 cells = experiment: Western blot of apoptosis-related proteins; format: cell-based; conditions: K562, 48 h
Procedure: Exponentially growing K562 cells in were seeded in […] at a density of 6х10^5/dish and incubated overnight. The cultured cells were treated with indicated concentrations of 29e for 48 h. After the cells were washed with cold PBS, the supernatant was removed. Cells were scraped off the tissue culture dish, and then lysed by 100 µl ice-cold RIPA lysis buffer for 20 min with occasional agitation. The supernatant was collected by centrifuging at 12,000 g for 10 min at 4 °C. The protein concentration in the supernatant was determined by using a BCA protein assay kit. After BCA analysis to quantify proteins, samples were prepared in SDS-PAGE loading buffer, then boiled for 10 min at 100 °C. Western blot analyses were conducted after separation by SDS-PAGE electrophoresis and transfer to nitrocellulose filter (NC) membranes. Immunoblotting was performed according to the antibody manufacturers’ recommendations. Antibodies: caspase-3, caspase-9, PARP and β-actin.

Structure (SMILES): COc1cc(C(=O)/C=C/c2cn(S(=O)(=O)c3ccccc3)c3ccccc23)cc(OC)c1OC [Compound 29e, (E)-3–(1-(Phenylsulfonyl)-1H-indol-3-yl)-1–(3,4,5-trimethoxyphenyl)prop-2-en-1-one]
- IC50 (HL60): 180 ± 2 nM
- IC50 (CCRF-CEM): 840 ± 80 nM
- Effect on tubulin binding of [3H]colchicine [1]: efficiently bound to the [^3H]colchicine binding domain of tubulin
- IC50 (MV4-11): 250 ± 20 nM
- IC50 (leukaemia cell lines): 90 to 1220 nM
- IC50 [2]: 4800 ± 700 nM
- IC50 (K562): 90 ± 1 nM
- Expression of caspase-3, caspase-9 and PARP (K562 cells): decreased efficiently
- Expression of cleaved caspase-3 and PARP (K562 cells): up-regulation of cleaved caspase-3 and PARP
